Measurements as given in patent US10294202B2, “Pyrrolidinones as herbicides” (FMC Corporation, priority 2013, dated 2019).

Tests used:
nightshade = assay: Test E preemergence herbicide test; type: in vivo, Solanum ptycanthum; set-up: key: 0 = no effect, 100 = complete control
Source text: (§1) Seeds of plant species selected from corn (Zea mays), soybean (Glycine max), velvetleaf (Abutilon theophrasti), lambsquarters (Chenopodium album), wild poinsettia (Euphorbia heterophylla), pigweed, palmer (palmer pigweed, Amaranthus palmeri), waterhemp (common waterhemp, Amaranthus rudis), surinam grass (Brachiaria decumbens), crabgrass, large (large crabgrass, Digitaria sanguinalis), crabgrass, Brazil (Brazilian crabgrass, Digitaria horizontalis), panicum, fall (fall panicum, Panicum dichotomiflorum), foxtail, giant (giant foxtail, Setaria faberii), foxtail, green (green foxtail, Setaria viridis), goosegrass (Eleusine indica), johnsongrass (Sorghum halepense), ragweed (common ragweed, Ambrosia elatior), barnyardgrass (Echinochloa crus-galli), sandbur (southern sandbur, Cenchrus echinatus), arrowleaf […] rhombifolia), ryegrass, Italian (Italian ryegrass, Lolium multiflorum), dayflower, VA (Virginia dayflower, Commelina virginica), field bindweed (Convolvulus arvensis), morningglory (Ipomoea coccinea), nightshade (eastern black nightshade, Solanum ptycanthum), kochia (Kochia scoparia), nutsedge, yellow (yellow nutsedge, Cyperus esculentus), cocklebur (common cocklebur, Xanthium strumarium), smartweed (ladysthumb smartweed, Polygonum Persicaria) and beggarticks (hairy beggarticks, Bidens pilosa), were planted into a silt loam soil and treated preemergence with test chemicals formulated in a non-phytotoxic solvent mixture which included a surfactant. Treated plants and controls were maintained in a greenhouse for 21 days, after which time all species were compared to controls and visually evaluated. Plant response ratings, summarized in Table E, are based on a scale of 0 to 100 where 0 is no effect and 100 is complete control. A dash (-) response means no test result.

sandbur = assay: Test E preemergence herbicide test; type: in vivo, Cenchrus echinatus; set-up: key: 0 = no effect, 100 = complete control
Source text: as §1

barley, spring = assay: Test D pre-/postemergence herbicide test; type: in vivo, Hordeum vulgare; details: for Plant response rating: Barley, Spring, scale 0 to 100; for Plant response rating, Barley, Spring: scale 0 to 100 (0 no effect, 100 complete control)
How it was run: (§2)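 Plants were sown in silt loam for preemergence spraying or in a peat moss/vermiculite mix for postemergence spraying at 2 to 18 cm height. Formulations used a non-phytotoxic solvent mixture with a surfactant. After 7 to 21 days, responses were scored visually from 0 (no effect) to 100 (complete control).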

Russian thistle = assay: Test D pre-/postemergence herbicide test; type: in vivo, Salsola kali; details: for Plant response rating: Postemergence, Russian Thistle, scale 0 to 100; for Plant response rating, Russian Thistle: Preemergence, scale 0 to 100 (0 no effect, 100 complete control)
How it was run: as §2

mustard, wild = assay: Test D pre-/postemergence herbicide test; type: in vivo, Sinapis arvensis; details: for Plant response rating: Mustard, Wild, scale 0 to 100; for Plant response rating, Mustard, Wild: scale 0 to 100 (0 no effect, 100 complete control)
How it was run: as §2

windgrass = assay: Test D pre-/postemergence herbicide test; type: in vivo, Apera spica-venti; details: for Plant response rating: Postemergence, Windgrass, scale 0 to 100; for Plant response rating, Windgrass: Preemergence, scale 0 to 100 (0 no effect, 100 complete control)
How it was run: as §2

oat, wild = assay: Test D pre-/postemergence herbicide test; type: in vivo, Avena fatua; details: for Plant response rating: Postemergence, Oat, Wild, scale 0 to 100; for Plant response rating, Oat, Wild: Preemergence, scale 0 to 100 (0 no effect, 100 complete control)
How it was run: as §2

lambsquarters = assay: Test D pre-/postemergence herbicide test; type: in vivo, Chenopodium album; details: for Plant response rating: Lambsquarters, scale 0 to 100; for Plant response rating, Lambsquarters: scale 0 to 100 (0 no effect, 100 complete control)
How it was run: as §2

bluegrass = assay: Test D pre-/postemergence herbicide test; type: in vivo, Poa annua; details: for Plant response rating: Bluegrass, scale 0 to 100; for Plant response rating, Bluegrass: scale 0 to 100 (0 no effect, 100 complete control)
How it was run: as §2

oilseed rape = assay: Test D pre-/postemergence herbicide test; type: in vivo, Brassica napus; details: for Plant response rating: Postemergence, Oilseed Rape, scale 0 to 100; for Plant response rating, Oilseed Rape: Preemergence, scale 0 to 100 (0 no effect, 100 complete control)
How it was run: as §2

SMILES: O=C1NCC(c2ccc(Cl)c(Cl)c2)C1C(=O)Nc1ccccc1F (racemic) [Compound 14]
- Plant response rating, Nightshade (nightshade; 16 g ai/ha): 0
- Plant response rating, Nightshade (nightshade; 31 g ai/ha): 0
- Plant response rating, Nightshade (nightshade; 62 g ai/ha): 30
- Plant response rating, Nightshade (nightshade; 125 g ai/ha): 50
- Plant response rating, Nightshade (nightshade; 250 g ai/ha): 70
- Plant response rating, Sandbur (sandbur; 16 g ai/ha): 0
- Plant response rating, Sandbur (sandbur; 31 g ai/ha): 0
- Plant response rating, Sandbur (sandbur; 62 g ai/ha): 0
- Plant response rating, Sandbur (sandbur; 125 g ai/ha): 0
- Plant response rating, Sandbur (sandbur; 250 g ai/ha): 30

SMILES: O=C1NCC(c2ccc(OC(F)F)cc2)C1C(=O)Nc1cccc(F)c1F (racemic) [Compound 350]
- Plant response rating, Nightshade (nightshade; 31 g ai/ha): 0
- Plant response rating, Nightshade (nightshade; 62 g ai/ha): 0
- Plant response rating, Nightshade (nightshade; 125 g ai/ha): 50
- Plant response rating, Nightshade (nightshade; 250 g ai/ha): 80
- Plant response rating, Sandbur (sandbur; 31 g ai/ha): 15
- Plant response rating, Sandbur (sandbur; 62 g ai/ha): 35
- Plant response rating, Sandbur (sandbur; 125 g ai/ha): 65
- Plant response rating, Sandbur (sandbur; 250 g ai/ha): 85

SMILES: O=C1NCC(c2ccc(C(F)(F)F)cc2)C1C(=O)Nc1ccccc1F (stereo not shown) [Compound 231]
- Plant response rating (barley, spring; Postemergence, 31 g ai/ha): 0
- Plant response rating (barley, spring; Postemergence, 62 g ai/ha): 0
- Plant response rating (barley, spring; Postemergence, 125 g ai/ha): 0
- Plant response rating (barley, spring; Postemergence, 250 g ai/ha): 0
- Plant response rating, Barley, Spring (barley, spring; Preemergence, 62 g ai/ha): 5
- Plant response rating, Barley, Spring (barley, spring; Preemergence, 125 g ai/ha): 5
- Plant response rating, Barley, Spring (barley, spring; Preemergence, 31 g ai/ha): 0
- Plant response rating (barley, spring; Preemergence, 250 g ai/ha): 35
- Plant response rating (Russian thistle; 31 g ai/ha): 20
- Plant response rating (Russian thistle; 62 g ai/ha): 35
- Plant response rating (Russian thistle; 125 g ai/ha): 35
- Plant response rating (Russian thistle; 250 g ai/ha): 35
- Plant response rating, Russian Thistle (Russian thistle; 62 g ai/ha): 5
- Plant response rating, Russian Thistle (Russian thistle; 125 g ai/ha): 15
- Plant response rating, Russian Thistle (Russian thistle; 31 g ai/ha): 0
- Plant response rating, Russian Thistle (Russian thistle; 250 g ai/ha): 30
- Plant response rating (mustard, wild; Postemergence, 31 g ai/ha): 35
- Plant response rating (mustard, wild; Postemergence, 62 g ai/ha): 65
- Plant response rating (mustard, wild; Postemergence, 125 g ai/ha): 65
- Plant response rating (mustard, wild; Postemergence, 250 g ai/ha): 75
- Plant response rating, Mustard, Wild (mustard, wild; Preemergence, 62 g ai/ha): 10
- Plant response rating, Mustard, Wild (mustard, wild; Preemergence, 125 g ai/ha): 0
- Plant response rating, Mustard, Wild (mustard, wild; Preemergence, 31 g ai/ha): 0
- Plant response rating (mustard, wild; Preemergence, 250 g ai/ha): 15
- Plant response rating (windgrass; 31 g ai/ha): 0
- Plant response rating (windgrass; 62 g ai/ha): 5
- Plant response rating (windgrass; 125 g ai/ha): 0
- Plant response rating (windgrass; 250 g ai/ha): 15
- Plant response rating, Windgrass (windgrass; 62 g ai/ha): 70
- Plant response rating, Windgrass (windgrass; 125 g ai/ha): 75
- Plant response rating, Windgrass (windgrass; 31 g ai/ha): 55
- Plant response rating, Windgrass (windgrass; 250 g ai/ha): 85
- Plant response rating (oat, wild; 31 g ai/ha): 5
- Plant response rating (oat, wild; 62 g ai/ha): 10
- Plant response rating (oat, wild; 125 g ai/ha): 10
- Plant response rating (oat, wild; 250 g ai/ha): 10
- Plant response rating, Oat, Wild (oat, wild; 62 g ai/ha): 20
- Plant response rating, Oat, Wild (oat, wild; 125 g ai/ha): 25
- Plant response rating, Oat, Wild (oat, wild; 31 g ai/ha): 20
- Plant response rating, Oat, Wild (oat, wild; 250 g ai/ha): 30
- Plant response rating (lambsquarters; Postemergence, 31 g ai/ha): 55
- Plant response rating (lambsquarters; Postemergence, 62 g ai/ha): 50
- Plant response rating (lambsquarters; Postemergence, 125 g ai/ha): 70
- Plant response rating (lambsquarters; Postemergence, 250 g ai/ha): 75
- Plant response rating, Lambsquarters (lambsquarters; Preemergence, 62 g ai/ha): 80
- Plant response rating, Lambsquarters (lambsquarters; Preemergence, 125 g ai/ha): 90
- Plant response rating, Lambsquarters (lambsquarters; Preemergence, 31 g ai/ha): 45
- Plant response rating (lambsquarters; Preemergence, 250 g ai/ha): 90
- Plant response rating (bluegrass; Postemergence, 31 g ai/ha): 5
- Plant response rating (bluegrass; Postemergence, 62 g ai/ha): 10
- Plant response rating (bluegrass; Postemergence, 125 g ai/ha): 10
- Plant response rating (bluegrass; Postemergence, 250 g ai/ha): 10
- Plant response rating, Bluegrass (bluegrass; Preemergence, 62 g ai/ha): 0
- Plant response rating, Bluegrass (bluegrass; Preemergence, 125 g ai/ha): 15
- Plant response rating, Bluegrass (bluegrass; Preemergence, 31 g ai/ha): 5
- Plant response rating (bluegrass; Preemergence, 250 g ai/ha): 25
- Plant response rating (oilseed rape; 31 g ai/ha): 15
- Plant response rating (oilseed rape; 62 g ai/ha): 10
- Plant response rating (oilseed rape; 125 g ai/ha): 20
- Plant response rating (oilseed rape; 250 g ai/ha): 40
- Plant response rating, Oilseed Rape (oilseed rape; 62 g ai/ha): 0
- Plant response rating, Oilseed Rape (oilseed rape; 125 g ai/ha): 45
- Plant response rating, Oilseed Rape (oilseed rape; 31 g ai/ha): 0
- Plant response rating, Oilseed Rape (oilseed rape; 250 g ai/ha): 55
